According to patent publication US10563272B2, “Compositions comprising Metarhizium fungi and use thereof as a pesticide” (Cotton Research and Development Corporation, priority 2015, dated 2020):

Test system: green mirid adults and nymphs
Experiment: Bollgard II cotton, Auscott-Togo 2012-13, Field 63 (Experiment 2): green mirids
Assay type: in vivo, Creontiades dilutus
Settings: 62.5 mL/ha
Procedure: Two separate trials (Experiment 1 in Field 77; Experiment 2 in Field 63) were conducted in Bollgard II cotton crops on a commercial cotton farm at Auscott-Togo near Narrabri, New South Wales from 11 Feb. to 5 Mar. 2013 (Field 77) and 19 Feb. to 6 Mar. 2013 (Field 63). The cotton used for each of the trials was at the late squaring to pod setting and maturation stages which was fairly attractive to green mirids.
In both trials, the efficacy of the following treatments against green mirids and predatory insects was evaluated: • 1. 250 mL/ha DAT 511 spore in oil (1×10^7 spores/ml); • 2. 500 mL/ha DAT 511 spore in oil (1×10^7 spores/ml); • 3. 1 L/ha DAT 511 spore in oil (1×10^7 spores/ml); • 4. 62.5 mL/ha of fipronil; and • 5. Unsprayed (negative control).
The treatment plots were arranged in a randomized complete block design with six replicates per treatment. Each replicated plot measured 40 m wide (40 rows) and 90 m long.
Foliar application of each treatment was made on 28 Feb. (for both green mirids and beneficial insects) and 13 Mar. 2012 (for beneficial insects alone) using a ground spray rig fitted with flat fan nozzles to achieve a droplet size of 200 μm. The treatment was applied during the mornings when temperatures were between 20° C. and 28° C. The timing of treatment was based on the IPM Guidelines and recommendations by CottonLogic to use an economic threshold of 0.5 green mirids per metre (Deutscher and Wilson 1999; Khan et al. 2004).
Pre-treatment counts of green mirid adults and nymphs, predatory beetles, predatory bugs, predatory lacewings and spiders were made by visual inspection of whole cotton plants. Both adults and nymphs of beneficial insects were counted. Plants were assessed in randomly selected one-metre lengths of row of each replicate (i.e. 6 m per treatment). Post-treatment counts were made 3, 7, 14 and 21 days after treatment. Data are expressed as numbers of green mirid adults and nymphs counted per metre for each treatment.

In the case of N#Cc1nn(-c2c(Cl)cc(C(F)(F)F)cc2Cl)c(N)c1[S+]([O-])C(F)(F)F (centres unmarked) [fipronil], the “No. green mirid adults and nymphs per meter” value (3 DAT) was 0.33 ± 0.33 a per meter, the “No. green mirid adults and nymphs per meter” value (7 DAT) was 0.00 ± 0.00 a per meter and the “No. green mirid adults and nymphs per meter” value (14 DAT) was 0.33 ± 0.33 a per meter. For the same compound, the “No. green mirid adults and nymphs per meter” value (21 DAT) was 0.00 ± 0.00 a per meter and the “No. green mirid adults and nymphs per meter” value (pre-spray counts) was 1.67 ± 0.33 a per meter.
